Data reported in patent US6271342A, “Sugar-modified cytostatics” (Bayer Aktiengesellschaft, priority 1995, dated 2001).
Several values for one entry are separate records, joined by “and”; a condition that tells them apart may be missing. Equal values may be shown once.

How the values were obtained:
HT 29 = experiment: Growth inhibition test (MTT) for cytotoxic properties; assay type: cell-based, human
Method in brief: (§1)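 SW 480 and HT 29 cells in RPMI 1640 with 10% FCS were seeded at 50,000 cells/ml, grown 1 day at 37 °C, then exposed to compound added in DMSO. MTT (5 mg/ml stock) was applied after day 3 and day 6 for 5 h, and formazan absorbance was read at 540 nm. IC50 values reported.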

SW 480 = experiment: as above; assay type: cell-based, human
Method in brief: as §1

[1] = Investigation of organ distribution in naked mice carrying SW 480 tumours; assay type: in vivo, Athymic naked mice (strain NMRI nu/nu)
Excerpt: Athymic naked mice (strain NMRI nu/nu) bred in "Drug Development Laboratory, Oncotest GmbH", Prof. H. H. Fiebig, Freiburg, were used for all the experiments. The animals were kept in Macrolon cages under laminar flow conditions. Tissue of the cell line SW 480 which had been grown beforehand in several passages in the naked mice, was used as the tumour material.
Two tumours per animal were implanted subcutaneously in the two flanks of the naked mice 6 to 8 weeks old. The animals were kept for 26 to 27 days until the time of randomization. The average tumour size was then 500 mg, corresponding to a tumour diameter of about 10 mm.
The pharmacokinetics themselves proceeded as follows: the substance to be investigated was injected into the naked mice and the mice were then put back in the cages until samples were taken after 1/2 hour and after 4 hours. The taking of samples itself began with sampling of blood. For this, the mouse was anaesthetized by means of anaesthetic ether (duration 1/2 to one minute). 0.5 hour and 4 hours after injection of the substance, the abdominal cavity was opened and the mouse was exsanguinated under anaesthesia via the Vena cava caudalis in the course of 1 to 2 minutes and then sacrificed by breaking its neck. As a result, central circulatory arrest occurred and organ perfusion was suppressed. The individual organs were then exposed and removed, an operation which took about 5 minutes. Immediately thereafter, the organ samples and then the remainder of the body were weighed and frozen in liquid nitrogen.
The substance "conjugate 1" is administered i.p. in an amount of 300 mg/kg of body weight and the substance "conjugate 2" is administered i.v. into the tail vein in an amount of 100 mg/kg. 5 animals are used per substance and time.
5, 10, 50, 100 and 200 μg of substance, dissolved in ethanol/water (1:1, v/v) were added to 1 g of bovine liver. The samples were then ground in a mortar with 1 g of sea sand and 2.5 ml of cooled ethanol/water (1:1, v/v) and centrifuged at 3500 rpm for 2 minutes. After removal of the supernatant, the residue was again mixed with 2.5 ml of ethanol/water and centrifuged and the supernatants were combined. In each case 100 μl were taken and analyzed by HPLC.
The organs were worked up analogously to A, the entire organs being broken down with 2.5 ml of ethanol/water and extracted.
The amount of blood taken was mixed with 2 ml of ethanol/water (1:1, v/v) and centrifuged for 2 minutes at 3500 rpm, and the supernatant was decanted. 2 ml of ethanol/water (1:1, v/v) were again added to the residue, the mixture was centrifuged and the supernatants were combined. In each case 100 μl of the combined supernatants were analyzed by HPLC. The HPLC conditions used under A were used. [drawing 14]

[2] = as above; assay type: in vivo, Athymic naked mice (strain NMRI nu/nu); settings: after conjugate 1 i.p. 300 mg/kg
B 16 F 10 = experiment: Growth inhibition test (MTT) for cytotoxic properties; assay type: cell-based, mouse; settings: Table 1b
Method in brief: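 Cells in RPMI 1640 with 10% FCS pre-cultured 1 day at 37° C, then exposed to test substances in DMSO; growth checked after day 3 and day 6. Read-out by MTT, 5 h incubation, isopropanol solubilization, extinction at 540 nm.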

[3] = test system: bone marrow parent cells of the mouse; experiment: CSF-induced proliferation of bone marrow parent cells, in vitro; assay type: cell-based; settings: recombinant murine GM-CSF, 7 days
Method: Bone marrow cells are flushed out of the femur of mice. 10^5 cells are incubated in McCoy SA medium (0.3% agar) together with recombinant murine GM-CSF (Genzyme; parent cell colony formation) and the substances (10^-4 to 100 μg/ml) at 37° C. and 7% CO2. 7 days later, the colonies ([…]) and clusters (17-50 cells) are counted.

[4] = test system: large-cell lung carcinoma LXFL 529; experiment: In vivo inhibition of tumour growth using a naked mouse model; set-up: species or system Athymic naked mice (NMRI nu/nu strain)
Excerpt: Athymic naked mice (NMRI nu/nu strain) were used for all the in vivo experiments for investigation of the inhibition of tumour growth. The large-cell lung carcinoma LXFL 529 selected was developed by serial passage in naked mice.
The tumour was implanted subcutaneously in both flanks of nu/nu naked mice 6 to 8 weeks old. Treatment was started, regardless of the doubling time, as soon as the tumours had reached a diameter of 5-7 mm. The mice were allocated to the treatment group and the control group (5 mice per group with 8-10 evaluable tumours) by randomization. The individual tumours of the control group all grew progressively.
The size of the tumours was measured in two dimensions by means of a sliding gauge. The tumour volume, which correlates well with the cell count, was then used for all the evaluations. The volume was calculated according to the equation "length×breadth×breadth/2" ([a×b^2 ]/2, a and b represent two diameters at right angles). The values of the relative tumour volume (RTV) were calculated for each individual tumour by dividing the tumour size on day X with the tumour size on day 0 (at the time of randomization). The mean RTV values were then used for the further evaluation.
The inhibition of the increase in the tumour volume (tumor volume of the test group/control group, T/C, in per cent) was the concluding measurement value.
All the compounds were administered according to an intermittent plan in each case on day 1, 5 and 9. Furthermore, all the compounds were administered intraperitoneally (i.p.) using water as the solvent.

tumour cell lines = experiment: Growth inhibition test, carbohydrate-free comparison compounds (cell line not stated); assay type: cell-based
Method: The human colon cell lines SW 480 and HT 29 (ATCC no. CCL 228 and HBT-38) and the mouse melanoma cell line B 16 F 10 were cultured in Roux dishes in RPMI 1640 medium with addition of 10% FCS. The cultures were then trypsinized and taken up in RPMI plus 10% FCS to a cell count of 50,000 cells/ml. 100 μl of cell suspension/well were introduced into a 96 microwell plate and incubated for 1 day at 37° C. in a CO2 incubating cabinet. A further 100 μl of RPMI medium and 1 μl of dimethyl sulphoxide with the test substances were then added. The growth was checked after day 3 and day 6. 40 μl of MTT solution (3-(4,5-dimethylthiazol-2-yl)-2,5-diphenyltetrazoline bromide) with an initial concentration of 5 mg/ml of H2 O were added to each microwave. The plate was incubated for 5 hours in a CO2 incubating cabinet at 37° C. The medium was then sucked off and 100 μl of i-propanol/well were added. After shaking for 30 minutes with 100 μl of H2 O, the extinction was measured at 540 nm with a Titertek Multiskan MCC/340 (Flow).

[5] = Table 1a, glycoconjugates of batracyline
[6] = Kidney, after conjugate 2 i.v. 100 mg/kg
[7] = Tumour, after conjugate 2 i.v. 100 mg/kg

For batracyline, the IC50 (HT 29; [5]) was 20 µM, the IC50 (SW 480; [5]) was 25 µM and the “Mean 4 hours (μg/g of organ)” value ([1]; Kidney, after conjugate 1 i.p. 300 mg/kg) was 27.5 μg/g of organ. The “Mean 0.5 hour (μg/g of organ)” value [1, 6] was 10.7 μg/g of organ, the “Mean 4 hours (μg/g of organ)” value [1, 6] was 0.8 μg/g of organ and the “Mean 4 hours (μg/g of organ)” value ([1]; Liver, after conjugate 1 i.p. 300 mg/kg) was 22.4 μg/g of organ. For the same compound, the “Mean 0.5 hour (μg/g of organ)” value [1, 7] was 2.5 μg/g of organ, the “Mean 4 hours (μg/g of organ)” value [1, 7] was 3.12 μg/g of organ and the “Mean 1 hour (μg/g of organ)” value ([2]; Kidney) was 26.1 μg/g of organ. The “Mean 1 hour (μg/g of organ)” value ([2]; Liver) was 34.1 μg/g of organ.
`CC1OC(Oc2ccc(NC(=S)NC(CCCCN)C(=O)NC3C=CCC4CN(c5c(F)cc6c(=O)c(C(=O)[O-])cn(C7CC7)c6c5Cl)CC43)cc2)C(O)C(OCC(=O)[O-])C1O.[Na+].[Na+]` (mixture of isomers) [Example 12.6, N-{N^α -[O-(3-O-Carboxymethyl-β-L-fucosyl)-4-hydroxy-phenylamino-thiocarbonyl]-lysyl}-quinolone-a, di-sodium salt] showed an IC50 (HT 29; Table 1b) of 7 µM, an IC50 (SW 480; Table 1b) of 4 µM and an IC50 (B 16 F 10) of 0.3 µM. For the same compound, the “IC50 [μg/ml] CSF-induced proliferation of bone marrow parent cells of the mouse” value [3] was 0.3 µg/mL, the “Dose [mg/kg/day], maximum tolerated dose (MTD)” value ([4]; i.p. in water on day 1, 5 and 9) was 100 mg/kg/day and the “Survival time” value ([4]; individual mice, treated at MTD i.p. on day 1, 5 and 9, di-sodium salt) was 23 days and > 26 days and 26 days. The “Relative tumour volume [% of day 0]” value ([4]; on day 19, treated at MTD i.p. on day 1, 5 and 9) was 300.7 % of day 0 and the “Optimum T/C” value ([4]; on day 19, tumour volume of test group/control group) was 19.4%.
With “N-[N^α,N^ε -bis-(4-hydroxyphenylamino-thiocarbonyl)-lysyl]-batracyline” the IC50 (tumour cell lines) was > 250 µM.
In the case of “N-[N^α,N^ε -bis-(4-hydroxyphenylamino-thiocarbonyl)-lysyl-D-alanyl]-batracyline”, the IC50 (tumour cell lines) is reported as > 250 µM.
